{
  "source": "patent US7687237B2",
  "about": "“Method of identification and quantification of proteins, isoforms of the angiotensin I converting enzyme” (Universidade Federal de Sao Paulo - UNIFESP, priority 2002, dated 2010)",
  "key": {"SHR rats": {"tested_on": "SHR rats", "assay": "SHR rats treated with enalapril: blood pressure", "format": "in vivo, rat", "settings": "isogenic hypertensive SHR rats treated with enalapril"}, "[1]": {"tested_on": "angiotensin I converting enzyme (ACE)", "assay": "ACE enzymatic activity (Hipuril-His-Leu substrate, Friedland and Silverstein method) in essential hypertensive patients after oral captopril", "format": "in vivo, human", "settings": "captopril 50 to 150 mg orally", "experimental": "Three days study, each day, each six hours collect duration; samples of blood and urine were collected at the final basal period (1 hour), after they reach the supine position, as well as at the end of the study (after 6 hours). […] The enzymatic activity using Hipuril-His-Leu substrate was measured by Friedland and Silverstein method (1976)."}, "[2]": {"tested_on": "enzyme of 63 kDa molecular weight which breaks the Phe8-Arg9 BK bond", "settings": "enzyme contained in urine, described by Ryan et al 1978; cited from earlier work"}},
  "data": [
    {"molecule": "CCOC(=O)[C@H](CCc1ccccc1)N[C@@H](C)C(=O)N1CCC[C@H]1C(=O)O", "note": "[enalapril]", "values": [
      {"measurement": "blood pressure of treated SHR rats", "setting": "SHR rats", "result": "pressure under control"}
    ]},
    {"molecule": "C[C@H](CS)C(=O)N1CCC[C@H]1C(=O)O", "note": "[captopril]", "values": [
      {"measurement": "inhibition on the enzyme activity", "setting": "[1]; essential (light and/or mild) arterial hypertensive patients, one-day dose, between 1 and 2 hours after administration, Hipuril-His-Leu substrate", "result": 50, "unit": "%"},
      {"measurement": "enzyme activity at the end of the studies", "setting": "[1]; essential arterial hypertensive patients, end of the study (after 6 hours)", "result": "returning to the basal levels"}
    ]},
    {"molecule": "BPP9a", "values": [
      {"measurement": "inhibition of the 63 kDa urine enzyme", "setting": "[2]", "result": "not inhibited"}
    ]}
  ]
}
